Results reported in ChEMBL document CHEMBL1201862, “PubChem BioAssay data set” (2004).
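Results reflect a 48-hour exposure of cells in 96-well plates to compound at five concentrations. GI50 is the concentration that inhibits growth by half.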 The source made the active and inactive calls. No stated cut-off is given here; in the data, active = GI50 up to about 1.1 µM and inactive = higher.

Key:
Assay in all cases: growth of human tumour cells (NCI), 48 h
[1] = tested on: 786-0
[2] = tested on: HCT-15
[3] = tested on: DMS-273
[4] = tested on: XF498
[5] = tested on: ACHN
[6] = tested on: HT-29
[7] = tested on: SNB-78
[8] = tested on: OVCAR-8
[9] = tested on: EKVX
[10] = tested on: CAKI-1
[11] = tested on: COLO 205
[12] = tested on: K562
[13] = tested on: RPMI-8226
[14] = tested on: SNB-75
[15] = tested on: SK-MEL-5
[16] = tested on: UACC-62
[17] = tested on: M19-MEL
[18] = tested on: HOP-18
[19] = tested on: Malme-3M
[20] = tested on: MOLT-4
[21] = tested on: OVCAR-3
[22] = tested on: SF-268
[23] = tested on: SW-620
[24] = tested on: HCC 2998
[25] = tested on: A498
[26] = tested on: SK-MEL-28
[27] = tested on: A549
[28] = tested on: IGROV-1
[29] = tested on: U-251
[30] = tested on: SNB-19
[31] = tested on: CCRF-CEM
[32] = tested on: HCT-116
[33] = tested on: SN12C
[34] = tested on: HOP-92
[35] = tested on: HOP-62
[36] = tested on: DMS-114
[37] = tested on: SF-539
[38] = tested on: KM-20L2
[39] = tested on: SF-295
[40] = tested on: SK-OV-3
[41] = tested on: SK-MEL-2
[42] = tested on: DLD-1
[43] = tested on: OVCAR-5
[44] = tested on: KM12
[45] = tested on: SR
[46] = tested on: NCI-H226
[47] = tested on: NCI-H522
[48] = tested on: UO-31
[49] = tested on: UACC-257
[50] = tested on: TK-10
[51] = tested on: M14
[52] = tested on: HL-60
[53] = tested on: RXF 393
[54] = tested on: NCI-H23
[55] = tested on: LOX IMVI
[56] = tested on: OVCAR-4
[57] = tested on: MCF7
[58] = tested on: NCI/ADR-RES
[59] = tested on: NCI-H460

NC(=O)c1ccccc1[N+](=O)[O-]
GI50 [1]: > 100 µM (inactive)
GI50 [2]: > 100 µM
GI50 [3]: > 100 µM (inactive)
GI50 [4]: > 100 µM (inactive)
GI50 [5]: > 100 µM (inactive)
GI50 [6]: > 100 µM (inactive)
GI50 [7]: > 100 µM (inactive)
GI50 [8]: > 100 µM (inactive)
GI50 [9]: > 100 µM (inactive)
GI50 [10]: > 100 µM (inactive)
GI50 [11]: > 100 µM (inactive)
GI50 [12]: > 100 µM (inactive)
GI50 [13]: > 100 µM (inactive)
GI50 [14]: > 100 µM (inactive)
GI50 [15]: > 100 µM (inactive)
GI50 [16]: > 100 µM (inactive)
GI50 [17]: > 100 µM (inactive)
GI50 [18]: > 100 µM (inactive)
GI50 [19]: > 100 µM (inactive)
GI50 [20]: > 100 µM (inactive)
GI50 [21]: > 100 µM (inactive)
GI50 [22]: > 100 µM (inactive)
GI50 [23]: > 100 µM (inactive)
GI50 [24]: > 100 µM (inactive)
GI50 [25]: > 100 µM (inactive)
GI50 [26]: > 100 µM (inactive)
GI50 [27]: > 100 µM (inactive)
GI50 [28]: > 100 µM (inactive)
GI50 [29]: > 100 µM (inactive)
GI50 [30]: > 100 µM (inactive)
GI50 [31]: > 10 µM (inactive)
GI50 [32]: > 100 µM (inactive)
GI50 [33]: > 100 µM (inactive)
GI50 [34]: > 100 µM (inactive)
GI50 [35]: > 100 µM (inactive)
GI50 [36]: > 100 µM (inactive)
GI50 [37]: > 100 µM (inactive)
GI50 [38]: > 100 µM (inactive)

C=CCC1(C(=O)OC(C)(C)C)C(OC)=C(C(=O)OC(C)(C)C)C2C1C(C(=O)OC(C)(C)C)=C(OC)C2(CC=C)C(=O)OC(C)(C)C (stereo not drawn)
GI50 [1]: > 100 µM (inactive)
GI50 [39]: > 100 µM (inactive)
GI50 [2]: > 100 µM
GI50 [4]: > 100 µM (inactive)
GI50 [5]: > 100 µM (inactive)
GI50 [40]: > 100 µM (inactive)
GI50 [8]: > 100 µM (inactive)
GI50 [9]: > 100 µM (inactive)
GI50 [11]: > 100 µM (inactive)
GI50 [41]: > 100 µM (inactive)
GI50 [42]: > 100 µM (inactive)
GI50 [12]: > 100 µM (inactive)
GI50 [13]: > 100 µM (inactive)
GI50 [43]: > 100 µM (inactive)
GI50 [14]: > 100 µM (inactive)
GI50 [44]: > 100 µM (inactive)
GI50 [45]: > 100 µM (inactive)
GI50 [16]: > 100 µM (inactive)
GI50 [17]: > 100 µM (inactive)
GI50 [18]: > 100 µM (inactive)
GI50 [19]: > 10 µM (inactive)
GI50 [20]: > 100 µM (inactive)
GI50 [21]: > 100 µM (inactive)
GI50 [22]: > 100 µM (inactive)
GI50 [23]: > 100 µM (inactive)
GI50 [24]: > 100 µM (inactive)
GI50 [46]: > 100 µM (inactive)
GI50 [47]: > 100 µM (inactive)
GI50 [26]: > 100 µM (inactive)
GI50 [27]: > 100 µM (inactive)
GI50 [48]: > 100 µM (inactive)
GI50 [49]: > 100 µM (inactive)
GI50 [28]: > 100 µM (inactive)
GI50 [50]: 64.6 µM (inactive)
GI50 [30]: > 100 µM (inactive)
GI50 [31]: > 100 µM (inactive)
GI50 [51]: > 100 µM (inactive)
GI50 [52]: > 100 µM (inactive)
GI50 [53]: > 100 µM (inactive)
GI50 [33]: > 100 µM (inactive)
GI50 [34]: > 100 µM (inactive)
GI50 [54]: > 100 µM (inactive)
GI50 [36]: > 100 µM (inactive)
GI50 [37]: > 100 µM (inactive)

C=C1C[C@@H](O)C[C@@]2(C)C[C@@H]3OC(=O)C(=C)[C@@H]3C[C@H]12
GI50 [55]: 4.46 µM (inactive)
GI50 [39]: 15.3 µM (inactive)
GI50 [2]: 4.42 µM
GI50 [3]: 5.35 µM (inactive)
GI50 [4]: 0.678 µM (active)
GI50 [6]: 2.94 µM (inactive)
GI50 [7]: 7.69 µM (inactive)
GI50 [40]: 20.7 µM (inactive)
GI50 [8]: 16 µM (inactive)
GI50 [10]: 4.22 µM (inactive)
GI50 [11]: 1.61 µM (inactive)
GI50 [41]: 11.9 µM (inactive)
GI50 [42]: 3.85 µM (inactive)
GI50 [12]: 4.19 µM (inactive)
GI50 [13]: 2.92 µM (inactive)
GI50 [43]: 7.36 µM (inactive)
GI50 [14]: 8.47 µM (inactive)
GI50 [15]: 3.51 µM (inactive)
GI50 [44]: 6.62 µM (inactive)
GI50 [56]: 15.2 µM (inactive)
GI50 [16]: 5.96 µM (inactive)
GI50 [17]: 20.4 µM (inactive)
GI50 [18]: 3.98 µM (inactive)
GI50 [19]: 3.37 µM (inactive)
GI50 [20]: 3.2 µM (inactive)
GI50 [21]: 11.2 µM (inactive)
GI50 [22]: 5.46 µM (inactive)
GI50 [23]: 5.42 µM (inactive)
GI50 [24]: 3.82 µM (inactive)
GI50 [46]: 14 µM (inactive)
GI50 [47]: 7.78 µM (inactive)
GI50 [57]: 3.78 µM (inactive)
GI50 [25]: 12.4 µM (inactive)
GI50 [26]: 4.82 µM (inactive)
GI50 [27]: 23 µM (inactive)
GI50 [48]: 4.85 µM (inactive)
GI50 [58]: 6.55 µM (inactive)
GI50 [49]: 4.43 µM (inactive)
GI50 [28]: 11.2 µM (inactive)
GI50 [29]: 12.2 µM (inactive)
GI50 [30]: 5.21 µM (inactive)
GI50 [31]: 3.56 µM (inactive)
GI50 [32]: 3.43 µM (inactive)
GI50 [52]: 1.89 µM (inactive)
GI50 [53]: 6.34 µM (inactive)
GI50 [33]: 5.57 µM (inactive)
GI50 [34]: 13.1 µM (inactive)
GI50 [54]: 15.9 µM (inactive)
GI50 [35]: 15.4 µM (inactive)
GI50 [36]: 8.73 µM (inactive)
GI50 [59]: 16.5 µM (inactive)
GI50 [37]: 9.68 µM (inactive)
GI50 [38]: 5.83 µM (inactive)

c1ccc2c(c1)SCCc1cn[nH]c1-2
GI50 [55]: > 100 µM (inactive)
GI50 [39]: > 100 µM (inactive)
GI50 [2]: > 100 µM
GI50 [3]: > 100 µM (inactive)
GI50 [4]: > 100 µM (inactive)
GI50 [6]: > 100 µM (inactive)
GI50 [7]: > 100 µM (inactive)
GI50 [40]: > 100 µM (inactive)
GI50 [8]: > 100 µM (inactive)
GI50 [9]: > 100 µM (inactive)
GI50 [10]: > 100 µM (inactive)
GI50 [11]: > 100 µM (inactive)
GI50 [41]: > 100 µM (inactive)
GI50 [42]: > 100 µM (inactive)
GI50 [12]: > 100 µM (inactive)
GI50 [43]: > 100 µM (inactive)
GI50 [14]: > 92.5 µM (inactive)
GI50 [15]: > 100 µM (inactive)
GI50 [44]: > 100 µM (inactive)
GI50 [56]: > 100 µM (inactive)
GI50 [16]: > 100 µM (inactive)
GI50 [17]: > 100 µM (inactive)
GI50 [18]: > 100 µM (inactive)
GI50 [19]: > 100 µM (inactive)
GI50 [20]: > 100 µM (inactive)
GI50 [21]: > 100 µM (inactive)
GI50 [22]: > 100 µM (inactive)
GI50 [23]: > 100 µM (inactive)
GI50 [24]: > 100 µM (inactive)
GI50 [46]: 24.7 µM (inactive)
GI50 [47]: > 100 µM (inactive)
GI50 [57]: > 100 µM (inactive)
GI50 [25]: > 100 µM (inactive)
GI50 [26]: > 100 µM (inactive)
GI50 [27]: > 100 µM (inactive)
GI50 [48]: > 100 µM (inactive)
GI50 [58]: > 100 µM (inactive)
GI50 [49]: > 100 µM (inactive)
GI50 [28]: > 100 µM (inactive)
GI50 [29]: > 100 µM (inactive)
GI50 [30]: > 100 µM (inactive)
GI50 [31]: > 100 µM (inactive)
GI50 [32]: > 100 µM (inactive)
GI50 [52]: > 100 µM (inactive)
GI50 [53]: > 100 µM (inactive)
GI50 [33]: > 100 µM (inactive)
GI50 [34]: > 73.5 µM (inactive)
GI50 [54]: > 100 µM (inactive)
GI50 [35]: > 100 µM (inactive)
GI50 [36]: > 100 µM (inactive)
GI50 [59]: > 100 µM (inactive)
GI50 [37]: > 100 µM (inactive)
GI50 [38]: > 100 µM (inactive)
